From patent publication US20100015603A1, “Chimeric proteins for measuring atp concentrations in pericellular space and related screening method” (priority 2005, published 2010) come the findings set out here.

The target in test [1] is T1, pmeLUC (Photinus pyralis, UniProt P08659, N119G/N50D).
T1 construct: expressed in transfected cells
In words: Response of HEK293-pmeLUC cells to extracellular nucleotides (affinity and selectivity of the pmeLUC probe, luminescence). Conditions: HEK293-pmeLUC cells, luminescence percent increase over basal. The test is classed as cell-based. As to the method:
(§1) ATP was measured in the custom-made luminometer described by Rizzuto and co-workers (Brini et al., 1999; Jouaville et al., 1999). For experiments, cells were plated onto 13 mm coverslips and were placed in a 37° C. thermostatted chamber (diameter 15 mm, height 2 mm) and perfused with a saline solution supplemented with luciferin at a concentration of 5 μM. The chamber was held in a photomultiplier kept in a dark refrigerated (4° C.) box. Light emission was detected by a Thorn EMI photon counting board installed in an IBM-compatible computer. The board allowed storing of the data in the computer memory for further analysis. During the experiments the thermostatted chamber was continuously perfused with buffer by means of a Gilson peristaltic pump. Alternatively, ATP was measured in the supernatants using soluble luciferase in a Firezyme luminometer as previously described (Baricordi et al., 1999; Solini et al, 2004; Zanovello et al., 1990).
Affinity of pmeLUC for ATP is rather low, with a threshold of about 10 μM, however, subsequent ATP additions elicit further increases in light emission that allow building a calibration curve (FIG. 2B). Importantly, pmeLUC is insensitive to all other nucleotides tested (ADP, UTP, UDP and GTP) (FIG. 2A).

The target of test [2] is T2, human P2X7R (Homo sapiens, UniProt Q99572).
T2 construct: expressed in transfected cells; host or cells: HEK293 (HEK293-hP2X7/pmeLUC)
T2 sequence (Q99572 1-595): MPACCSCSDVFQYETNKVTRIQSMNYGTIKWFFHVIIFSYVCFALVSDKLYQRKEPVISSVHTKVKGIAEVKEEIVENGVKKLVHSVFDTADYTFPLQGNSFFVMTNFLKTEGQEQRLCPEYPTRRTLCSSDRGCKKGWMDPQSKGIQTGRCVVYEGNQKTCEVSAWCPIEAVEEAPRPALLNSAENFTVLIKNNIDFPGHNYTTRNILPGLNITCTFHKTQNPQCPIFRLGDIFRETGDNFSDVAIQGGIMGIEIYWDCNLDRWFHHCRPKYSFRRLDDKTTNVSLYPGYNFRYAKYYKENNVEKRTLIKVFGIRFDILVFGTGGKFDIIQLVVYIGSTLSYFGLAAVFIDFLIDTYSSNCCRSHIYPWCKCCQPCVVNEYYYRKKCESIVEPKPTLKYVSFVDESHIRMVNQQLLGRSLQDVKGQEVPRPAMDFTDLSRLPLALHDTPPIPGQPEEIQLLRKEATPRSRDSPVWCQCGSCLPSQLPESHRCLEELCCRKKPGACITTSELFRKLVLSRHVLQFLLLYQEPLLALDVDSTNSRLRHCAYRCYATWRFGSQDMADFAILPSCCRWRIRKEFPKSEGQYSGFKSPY
In words: ATP release through the P2X7 receptor in HEK293-hP2X7/pmeLUC cells, pmeLUC luminescence. The test is classed as cell-based. Conditions: HEK293 cells transfected with human P2X7R, FIG. 4B. As to the method:
(§2) HEK293 cells were cultured in DMEM-F12 (Sigma-Aldrich). Media were supplemented with 10% heat-inactivated FBS, 100 U/ml penicillin and 100 μg/ml streptomycin (Invitrogen corporation, San Giuliano Milanese, Italy). ACN neuroblastoma cells were cultured in DMEM supplemented with MEM non-essential amino acid solution 100× (Sigma-Aldrich). HEK293 cells were transfected with the calcium phosphate method. Cells transiently expressing the pmeLUC construct were assayed 36 hours after transfection. Clones stably expressing pmeLUC or the P2X7R were generated by culture of the transfected cells in the presence of G418 (0.8 mg/ml, added 48 hours after transfection) for 3 weeks. Stable P2X7- or pmeLUC-expressing clones were kept in the continuous presence of 0.2 mg/ml of G418 sulphate (Geneticin) (Calbiochem, la Jolla, Calif.). ACN cells were transfected with pmeLUC by lipofectamine (Invitrogen) and tested 24 hours after transfection. Briefly, cells were incubated in 250 μl serum-free transfection medium (OPTIMEM) in the presence of lipofectamine-plus-DNA (0.4 μg per well). After 3 hours incubation 1 ml of DMEM plus 10% FBS supplemented with MEM non-essential amino acid solution 100× (Sigma-Aldrich) was added. Cells were assayed 24 hours after transfection. In order to allow a high level of plasma membrane expression of the transfected constructs, cells were incubated overnight in the presence of 1 mM DTT (Mezghrani et al, 2001). Furthermore, they were also kept at room temperature (21° C.) for two hours prior to transfer into the thermostated luminometer chamber.
as §1
Early experiments carried out not only by the authors of the present invention had shown that supernatants from cells expressing the P2X7 receptor contained a high level of ATP, which was not due to an accelerated rate of cell lysis (Baricordi et al., 1999; Adinolfi et al., 2003; Solini et al., 2004). […] To test such hypothesis several HEK293 clones were generated stably transfected with the human or rat P2X7R (HEK293-hP2X7 or HEK293-rP2X7, respectively). These clones were then transfected with pmeLUC (HEK293-P2X7/pmeLUC).

Test [3] addresses T3, rat P2X7R (Rattus norvegicus, UniProt Q64663).
T3 construct: expressed in transfected cells; host or cells: HEK293 (HEK293-rP2X7/pmeLUC)
T3 sequence (Q64663 1-595): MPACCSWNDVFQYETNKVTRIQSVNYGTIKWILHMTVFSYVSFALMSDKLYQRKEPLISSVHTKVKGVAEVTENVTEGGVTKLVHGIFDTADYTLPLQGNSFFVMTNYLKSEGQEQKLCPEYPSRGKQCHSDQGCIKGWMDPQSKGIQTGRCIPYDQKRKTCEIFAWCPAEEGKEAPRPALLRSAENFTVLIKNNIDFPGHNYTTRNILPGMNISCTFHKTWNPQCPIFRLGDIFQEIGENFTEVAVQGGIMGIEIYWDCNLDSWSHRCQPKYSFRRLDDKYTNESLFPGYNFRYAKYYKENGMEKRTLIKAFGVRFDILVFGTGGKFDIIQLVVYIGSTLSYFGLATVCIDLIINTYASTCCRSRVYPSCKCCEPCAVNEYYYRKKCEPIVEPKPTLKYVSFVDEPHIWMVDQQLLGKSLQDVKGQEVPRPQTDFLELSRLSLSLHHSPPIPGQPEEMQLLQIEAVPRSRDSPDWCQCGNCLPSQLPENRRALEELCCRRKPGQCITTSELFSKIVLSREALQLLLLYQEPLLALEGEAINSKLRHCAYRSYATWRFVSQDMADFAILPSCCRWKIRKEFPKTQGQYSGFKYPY
In words: ATP release through the P2X7 receptor in HEK293-rP2X7/pmeLUC cells, pmeLUC luminescence. It counts as cell-based. Conditions: HEK293 cells transfected with rat P2X7R, FIG. 4A. As to the method:
as §2
ATP was measured in the custom-made luminometer described by Rizzuto and co-workers (Brini et al., 1999; Jouaville et al., 1999). […] Light emission was detected by a Thorn EMI photon counting board installed in an IBM-compatible computer. […] Alternatively, ATP was measured in the supernatants using soluble luciferase in a Firezyme luminometer as previously described (Baricordi et al., 1999; Solini et al, 2004; Zanovello et al., 1990). […]

Test [4] has as its system J774 macrophage cells. In words: ATP release / photon emission in J774 macrophage cells expressing pmeLUC probe. It counts as cell-based, mouse. As to conditions: ATP 5 μM to 1 mM, FIG. 6A. As to the method: (§3) Cells cultured in flasks for cell culture (75 cm^2) were transfected with a vector containing the produced chimeric probe, by transfection techniques more suitable for the cell line under examination. As experimental model established macrophage cells, named J774, and established pulmonary epithelial cells, named […], were used after being transfected with pmeLUC probe using TransFectin (Biorad) that ensure the major percent of positive cells for these cell lines.
(§4) 36 hours after transfection cells were removed from the bottom of flasks for trypsinization. Cell suspension was transferred in a Falcon tube (from 15 to 50 ml) and centrifuged at 1200 rpm at 20° C. and finally cell precipitate was re-suspended in DMEM medium supplemented with DTT (1 mM).
(§5) 50 μl of suspension containing transfected cells (corresponding to about 50.000 cells) were seeded in each well of the plate. Cells were incubated overnight.
(§6) The day after seeding cells were incubated with a saline solution (KRB: Krebs-Ringer modified buffer: 125 mM NaCl, 5 mM KCl, 1 mM Na3PO4, 1 mM MgSO4, 1 mM CaCl2, 5.5 mM glucose, 20 mM HEPES, pH 7.4, 37° C.) supplemented with luciferin (5 μM) and were directly contacted with a photomultiplier measuring photon emission by luciferase.

Test [5] relates to A549 pulmonary epithelial cells. In words: ATP release / photon emission in A549 pulmonary epithelial cells expressing pmeLUC probe. The test is classed as cell-based, human. Conditions: ATP 5 μM to 1 mM, FIG. 7A. As to the method: as §3, §4, §5, §6

T1 sequence (P08659 with tags, fused parts or gaps N50D/N119G): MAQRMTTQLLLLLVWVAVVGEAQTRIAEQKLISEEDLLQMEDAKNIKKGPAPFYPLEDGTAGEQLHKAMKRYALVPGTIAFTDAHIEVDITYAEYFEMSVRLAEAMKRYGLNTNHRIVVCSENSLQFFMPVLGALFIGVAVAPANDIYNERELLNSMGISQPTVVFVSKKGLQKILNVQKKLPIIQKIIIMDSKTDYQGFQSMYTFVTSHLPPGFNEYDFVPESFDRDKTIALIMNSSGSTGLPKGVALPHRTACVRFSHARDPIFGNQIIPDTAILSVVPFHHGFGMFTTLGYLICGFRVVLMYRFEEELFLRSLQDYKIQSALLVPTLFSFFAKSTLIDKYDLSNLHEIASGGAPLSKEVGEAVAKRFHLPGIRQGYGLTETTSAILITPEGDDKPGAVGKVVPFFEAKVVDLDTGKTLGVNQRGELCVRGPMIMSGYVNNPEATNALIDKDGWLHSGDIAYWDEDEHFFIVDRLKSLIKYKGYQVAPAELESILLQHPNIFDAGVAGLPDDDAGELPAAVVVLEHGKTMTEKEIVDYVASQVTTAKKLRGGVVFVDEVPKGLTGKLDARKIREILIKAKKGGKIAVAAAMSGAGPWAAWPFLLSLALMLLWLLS

`Nc1ncnc2c1ncn2[C@@H]1O[C@H](COP(=O)(O)OP(=O)(O)OP(=O)(O)O)[C@@H](O)[C@H]1O` [ATP]: the “threshold of pmeLUC for ATP (affinity)” value in test [1] was “about 10 μM”. In addition, in test [2], the “ATP concentration at which luminescence increase over control cells is detectable” value is “higher than 100 μM”. In test [3], the “ATP concentration at which extra-increase in luminescence over control cells is detectable” value was in the range of 10 to 50 µM. Besides, the “photon emission by the pmeLUC probe on addition of outer ATP” value in test [4] and in test [5] was “proportional to ATP concentration applied” throughout.
